Assay: xn = mol fraction of the nth substance listed
Settings: 101 kPa, Liquid

CCCCCCCC[n+]1ccn(C)c1.F[P-](F)(F)(F)(F)F [1-octyl-3-methylimidazolium hexafluorophosphate] + CCOC(C)=O
Settings | mass density [kg/m3] | speed of sound [m/s]
293.15 K, x1 = 0.1056 | 992.13 | 1246.8
293.15 K, x1 = 0.2064 | 1052.79 | 1300.8
293.15 K, x1 = 0.308 | 1097.25 | 1323
293.15 K, x1 = 0.4094 | 1130.77 | 1339
293.15 K, x1 = 0.4991 | 1154.21 | 1349
293.15 K, x1 = 0.5916 | 1174.12 | 1356.8
293.15 K, x1 = 0.694 | 1192.49 | 1363.1
293.15 K, x1 = 0.8121 | 1210.2 | 1368.1
293.15 K, x1 = 0.8895 | 1220.31 | 1374.2
293.15 K, x1 = 1 | 1222.81 | 1388.2
298.15 K, x1 = 0.1056 | 987.426 | 1228.2
298.15 K, x1 = 0.2064 | 1048.5 | 1284.8
298.15 K, x1 = 0.308 | 1093.04 | 1303.4
298.15 K, x1 = 0.4094 | 1126.53 | 1325
298.15 K, x1 = 0.4991 | 1150 | 1335.1
298.15 K, x1 = 0.5916 | 1169.99 | 1342.7
298.15 K, x1 = 0.694 | 1188.53 | 1348.9
298.15 K, x1 = 0.8121 | 1206.48 | 1353.8
298.15 K, x1 = 0.8895 | 1216.63 | 1358.3
298.15 K, x1 = 1 | 1218.9 | 1373.4
303.15 K, x1 = 0.1056 | 982.485 | 1209.8
303.15 K, x1 = 0.2064 | 1044 | 1268.9
303.15 K, x1 = 0.308 | 1088.65 | 1288.2
303.15 K, x1 = 0.4094 | 1122.2 | 1309
303.15 K, x1 = 0.4991 | 1145.83 | 1320.9
303.15 K, x1 = 0.5916 | 1166.01 | 1328.6
303.15 K, x1 = 0.694 | 1184.79 | 1334.7
303.15 K, x1 = 0.8121 | 1202.87 | 1339.7
303.15 K, x1 = 0.8895 | 1212.97 | 1345.2
303.15 K, x1 = 1 | 1214.96 | 1359.3
308.15 K, x1 = 0.1056 | 977.389 | 1191.5
308.15 K, x1 = 0.2064 | 1039.34 | 1253
308.15 K, x1 = 0.308 | 1084.23 | 1273.5
308.15 K, x1 = 0.4094 | 1117.99 | 1298
308.15 K, x1 = 0.4991 | 1141.76 | 1306.3
308.15 K, x1 = 0.5916 | 1162.11 | 1314.2
308.15 K, x1 = 0.694 | 1180.99 | 1320.5
308.15 K, x1 = 0.8121 | 1199.1 | 1325.6
308.15 K, x1 = 0.8895 | 1209.17 | 1331.3
308.15 K, x1 = 1 | 1211.13 | 1345.8
313.15 K, x1 = 0.1056 | 972.526 | 1173.3
313.15 K, x1 = 0.2064 | 1034.74 | 1237.5
313.15 K, x1 = 0.308 | 1079.71 | 1258.3
313.15 K, x1 = 0.4094 | 1113.66 | 1282
313.15 K, x1 = 0.4991 | 1137.66 | 1292.8
313.15 K, x1 = 0.5916 | 1158.28 | 1300.8
313.15 K, x1 = 0.694 | 1177.41 | 1307.2
313.15 K, x1 = 0.8121 | 1195.57 | 1312.3
313.15 K, x1 = 0.8895 | 1205.55 | 1318.4
313.15 K, x1 = 1 | 1207.33 | 1332.7
318.15 K, x1 = 0.1056 | 967.143 | 1155.2
318.15 K, x1 = 0.2064 | 1029.94 | 1222.1
318.15 K, x1 = 0.308 | 1075.23 | 1243.5
318.15 K, x1 = 0.4094 | 1109.39 | 1268
318.15 K, x1 = 0.4991 | 1133.54 | 1279.3
318.15 K, x1 = 0.5916 | 1154.33 | 1287.5
318.15 K, x1 = 0.694 | 1173.67 | 1294
318.15 K, x1 = 0.8121 | 1192.1 | 1299.2
318.15 K, x1 = 0.8895 | 1202.11 | 1305.2
318.15 K, x1 = 1 | 1203.5 | 1320.1
323.15 K, x1 = 0.1056 | 962.069 | 1132.4
323.15 K, x1 = 0.2064 | 1025.26 | 1206.9
323.15 K, x1 = 0.308 | 1070.7 | 1229.1
323.15 K, x1 = 0.4094 | 1105.03 | 1250
323.15 K, x1 = 0.4991 | 1129.38 | 1265.9
323.15 K, x1 = 0.5916 | 1150.44 | 1274.2
323.15 K, x1 = 0.694 | 1170.05 | 1280.9
323.15 K, x1 = 0.8121 | 1188.56 | 1286.3
323.15 K, x1 = 0.8895 | 1198.5 | 1292.2
323.15 K, x1 = 1 | 1199.67 | 1307.7

CCCCCCCC[n+]1ccn(C)c1.F[P-](F)(F)(F)(F)F [1-octyl-3-methylimidazolium hexafluorophosphate] + CCCCOC(C)=O
Settings | mass density [kg/m3] | speed of sound [m/s]
293.15 K, x1 = 0.1078 | 957.599 | 1231.1
293.15 K, x1 = 0.2016 | 1010.44 | 1251
293.15 K, x1 = 0.3056 | 1058.02 | 1273.2
293.15 K, x1 = 0.3855 | 1088.56 | 1291.6
293.15 K, x1 = 0.4815 | 1119.98 | 1309.4
293.15 K, x1 = 0.5918 | 1150.6 | 1328.2
293.15 K, x1 = 0.6857 | 1173.18 | 1343.6
293.15 K, x1 = 0.7784 | 1193.01 | 1358.4
293.15 K, x1 = 0.8946 | 1215.11 | 1375.1
293.15 K, x1 = 1 | 1222.81 | 1388.2
298.15 K, x1 = 0.1078 | 953.226 | 1211.6
298.15 K, x1 = 0.2016 | 1006.23 | 1232.7
298.15 K, x1 = 0.3056 | 1053.87 | 1256.9
298.15 K, x1 = 0.3855 | 1084.42 | 1275
298.15 K, x1 = 0.4815 | 1115.96 | 1293.4
298.15 K, x1 = 0.5918 | 1146.75 | 1313.3
298.15 K, x1 = 0.6857 | 1169.44 | 1328.8
298.15 K, x1 = 0.7784 | 1189.32 | 1343.7
298.15 K, x1 = 0.8946 | 1211.35 | 1361.6
298.15 K, x1 = 1 | 1218.9 | 1373.4
303.15 K, x1 = 0.1078 | 948.745 | 1192.2
303.15 K, x1 = 0.2016 | 1001.93 | 1214.5
303.15 K, x1 = 0.3056 | 1049.62 | 1239.7
303.15 K, x1 = 0.3855 | 1080.26 | 1258.8
303.15 K, x1 = 0.4815 | 1111.97 | 1278.6
303.15 K, x1 = 0.5918 | 1142.89 | 1298.6
303.15 K, x1 = 0.6857 | 1165.73 | 1314.7
303.15 K, x1 = 0.7784 | 1185.68 | 1329.6
303.15 K, x1 = 0.8946 | 1207.65 | 1347.1
303.15 K, x1 = 1 | 1214.96 | 1359.3
308.15 K, x1 = 0.1078 | 944.257 | 1172.8
308.15 K, x1 = 0.2016 | 997.643 | 1196.4
308.15 K, x1 = 0.3056 | 1045.4 | 1222.6
308.15 K, x1 = 0.3855 | 1076.13 | 1242.8
308.15 K, x1 = 0.4815 | 1107.98 | 1263.5
308.15 K, x1 = 0.5918 | 1139.12 | 1284
308.15 K, x1 = 0.6857 | 1162.11 | 1300.8
308.15 K, x1 = 0.7784 | 1182.13 | 1315.8
308.15 K, x1 = 0.8946 | 1204.03 | 1333.5
308.15 K, x1 = 1 | 1211.13 | 1345.8
313.15 K, x1 = 0.1078 | 939.644 | 1153.7
313.15 K, x1 = 0.2016 | 993.304 | 1178.5
313.15 K, x1 = 0.3056 | 1041.23 | 1205.7
313.15 K, x1 = 0.3855 | 1072.05 | 1226.9
313.15 K, x1 = 0.4815 | 1104.1 | 1248.4
313.15 K, x1 = 0.5918 | 1135.23 | 1269.7
313.15 K, x1 = 0.6857 | 1158.31 | 1286.8
313.15 K, x1 = 0.7784 | 1178.4 | 1302.1
313.15 K, x1 = 0.8946 | 1200.3 | 1322.1
313.15 K, x1 = 1 | 1207.33 | 1332.7
318.15 K, x1 = 0.1078 | 935.027 | 1134.6
318.15 K, x1 = 0.2016 | 988.947 | 1160.7
318.15 K, x1 = 0.3056 | 1037 | 1189
318.15 K, x1 = 0.3855 | 1067.9 | 1211.2
318.15 K, x1 = 0.4815 | 1100.12 | 1233.6
318.15 K, x1 = 0.5918 | 1131.33 | 1255.5
318.15 K, x1 = 0.6857 | 1154.61 | 1273.1
318.15 K, x1 = 0.7784 | 1174.85 | 1288.7
318.15 K, x1 = 0.8946 | 1196.83 | 1309.5
318.15 K, x1 = 1 | 1203.5 | 1320.1
323.15 K, x1 = 0.1078 | 930.067 | 1115.7
323.15 K, x1 = 0.2016 | 984.404 | 1143
323.15 K, x1 = 0.3056 | 1032.8 | 1172.3
323.15 K, x1 = 0.3855 | 1063.84 | 1195.6
323.15 K, x1 = 0.4815 | 1096.14 | 1218.8
323.15 K, x1 = 0.5918 | 1127.43 | 1241.6
323.15 K, x1 = 0.6857 | 1150.89 | 1259.4
323.15 K, x1 = 0.7784 | 1171.35 | 1275.5
323.15 K, x1 = 0.8946 | 1193.45 | 1296.1
323.15 K, x1 = 1 | 1199.67 | 1307.7

— the NIST ThermoML archive (doi:10.1016/j.jct.2014.01.012)
